Test results from patent US11654199B2 (BOLT BIOTHERAPEUTICS, INC., priority 2019, dated 2023).

How the values were obtained:
human TLR8 = target: T1, human TLR8 (Homo sapiens, UniProt Q9NR97); test: HEK293 NFKB reporter assay, human TLR8; type: cell-based; conditions: HEK293 NFKB reporter cells expressing human TLR8; read-out: HEK293 hTLR8 EC50
T1 construct: host or cells: HEK293 reporter cells
T1 sequence (Q9NR97 27-1041): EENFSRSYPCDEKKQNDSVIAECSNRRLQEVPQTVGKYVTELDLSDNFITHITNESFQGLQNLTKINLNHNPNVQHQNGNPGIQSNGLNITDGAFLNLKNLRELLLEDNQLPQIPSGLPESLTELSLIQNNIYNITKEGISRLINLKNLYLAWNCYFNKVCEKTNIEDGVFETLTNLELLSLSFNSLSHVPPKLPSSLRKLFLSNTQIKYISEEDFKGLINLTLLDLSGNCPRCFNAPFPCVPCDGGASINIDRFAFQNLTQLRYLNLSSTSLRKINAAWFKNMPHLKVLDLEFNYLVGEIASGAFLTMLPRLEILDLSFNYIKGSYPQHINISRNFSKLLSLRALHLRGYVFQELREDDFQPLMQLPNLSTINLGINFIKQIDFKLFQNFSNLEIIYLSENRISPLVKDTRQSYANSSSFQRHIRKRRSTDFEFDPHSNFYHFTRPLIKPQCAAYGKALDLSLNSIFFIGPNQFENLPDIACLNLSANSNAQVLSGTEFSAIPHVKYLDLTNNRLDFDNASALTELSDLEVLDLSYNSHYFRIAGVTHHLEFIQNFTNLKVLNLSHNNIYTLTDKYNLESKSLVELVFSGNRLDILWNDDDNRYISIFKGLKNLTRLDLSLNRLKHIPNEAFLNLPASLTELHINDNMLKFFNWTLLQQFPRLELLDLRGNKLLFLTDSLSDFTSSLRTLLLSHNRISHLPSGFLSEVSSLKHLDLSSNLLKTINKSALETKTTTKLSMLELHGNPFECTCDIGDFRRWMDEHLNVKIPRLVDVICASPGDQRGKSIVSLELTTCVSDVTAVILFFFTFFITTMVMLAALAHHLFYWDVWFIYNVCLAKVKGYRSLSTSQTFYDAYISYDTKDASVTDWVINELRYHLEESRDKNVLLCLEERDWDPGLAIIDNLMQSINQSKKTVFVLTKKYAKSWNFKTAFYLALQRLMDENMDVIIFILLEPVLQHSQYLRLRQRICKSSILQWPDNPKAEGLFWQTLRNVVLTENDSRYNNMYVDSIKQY
Experimental: (§1) Each compound was synthesized, purified, and characterized by mass spectrometry and shown to have the mass indicated. Additional experimental procedures are found in the Examples. Activity against HEK293 NFKB reporter cells expressing human TLR7 or human TLR8 was measured according to Example 202.
(§2) HEK293 reporter cells expressing human TLR7 or human TLR8 were purchased from Invivogen and vendor protocols were followed for cellular propagation and experimentation. Briefly, cells were grown to 80-85% confluence at 5% CO2 in DMEM supplemented with 10% FBS, Zeocin, and Blasticidin. Cells were then seeded in 96-well flat plates at 4×10^4 cells/well with substrate containing HEK detection medium and immunostimulatory molecules. Activity was measured using a plate reader at 620-655 nm wavelength.

human TLR7 = target: T2, human TLR7 (Homo sapiens, UniProt Q9NYK1); test: HEK293 NFKB reporter assay, human TLR7; type: cell-based; conditions: HEK293 NFKB reporter cells expressing human TLR7; read-out: HEK293 hTLR7 EC50
T2 construct: host or cells: HEK293 reporter cells
T2 sequence (Q9NYK1 27-1049): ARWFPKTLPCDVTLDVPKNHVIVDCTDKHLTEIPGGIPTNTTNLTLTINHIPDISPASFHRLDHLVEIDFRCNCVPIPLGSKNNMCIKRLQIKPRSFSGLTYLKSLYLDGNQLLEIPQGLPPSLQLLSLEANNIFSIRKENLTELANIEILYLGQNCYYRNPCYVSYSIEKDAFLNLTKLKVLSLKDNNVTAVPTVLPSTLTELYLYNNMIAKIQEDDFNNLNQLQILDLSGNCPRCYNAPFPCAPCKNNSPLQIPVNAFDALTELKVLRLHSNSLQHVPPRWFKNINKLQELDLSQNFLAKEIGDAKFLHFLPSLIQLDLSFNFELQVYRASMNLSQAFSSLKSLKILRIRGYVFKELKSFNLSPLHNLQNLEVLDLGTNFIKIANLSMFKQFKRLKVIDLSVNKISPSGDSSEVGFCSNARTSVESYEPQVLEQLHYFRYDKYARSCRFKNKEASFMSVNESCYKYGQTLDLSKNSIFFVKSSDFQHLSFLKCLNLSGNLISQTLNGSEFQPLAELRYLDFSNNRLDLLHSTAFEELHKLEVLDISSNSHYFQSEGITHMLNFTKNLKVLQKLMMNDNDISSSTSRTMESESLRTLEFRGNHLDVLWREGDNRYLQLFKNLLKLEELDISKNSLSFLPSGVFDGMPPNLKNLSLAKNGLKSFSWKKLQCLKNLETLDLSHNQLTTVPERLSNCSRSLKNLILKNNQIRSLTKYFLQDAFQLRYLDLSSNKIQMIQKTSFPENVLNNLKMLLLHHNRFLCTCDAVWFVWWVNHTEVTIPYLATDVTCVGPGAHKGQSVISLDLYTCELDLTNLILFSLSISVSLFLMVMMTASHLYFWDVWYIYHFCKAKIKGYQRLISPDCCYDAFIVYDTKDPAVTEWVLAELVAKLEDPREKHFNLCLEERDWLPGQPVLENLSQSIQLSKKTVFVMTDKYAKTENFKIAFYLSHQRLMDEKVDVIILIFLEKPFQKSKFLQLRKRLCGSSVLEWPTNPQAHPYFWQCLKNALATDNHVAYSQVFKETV
Experimental: as §1, §2

| EC50 (human TLR8) | EC50 (human TLR7) | Compound |
| --- | --- | --- |
| – | 2.03 µM | CCCN(CCCNC(=O)OC1CCC1)C(=O)C1=Cc2sc(CC3CNC3)cc2N=C(N)C1 [TAZ-181] |
| 4.32 µM | – | CCCN(OCC)C(=O)C1=Cc2sc(CN3CC(CN)C3)cc2N=C(N)C1 [TAZ-211] |
| 2.54 µM | – | CCCN(OCC)C(=O)C1=Cc2sc(CC3CCN(C(=O)OC(C)(C)C)CC3)cc2N=C(N)C1 [TAZ-179] |
| 0.964 µM | – | CCCN(OCC)C(=O)C1=Cc2sc(C#CC3CN(C(=O)OC(C)(C)C)C3)cc2N=C(N)C1 [TAZ-187] |
| 3.78 µM | – | CCCN(OCC)C(=O)C1=Cc2sc(CN3C[C@@H]4CN(C(=O)OC(C)(C)C)C[C@@H]4C3)cc2N=C(N)C1 [TAZ-242] |
| 0.418 µM | – | CCCN(OCC)C(=O)C1=Cc2sc(CN3C[C@H]4CNC[C@H]4C3)cc2N=C(N)C1 [TAZ-247] |
| 7.8 µM | – | CCCN(OCC)C(=O)C1=Cc2sc(C#CC3(O)CN(C(=O)OC(C)(C)C)C3)cc2N=C(N)C1 [TAZ-188] |
| 1.11 µM | – | CCCN(OCC)C(=O)C1=Cc2sc(CN3CC4(CCN4Cc4ccccc4)C3)cc2N=C(N)C1 [TAZ-246] |
| – | 3.7 µM | CCCN(CCCNC(=O)OC1CCC1)C(=O)C1=Cc2sc(CC3CCNCC3)cc2N=C(N)C1 [TAZ-185, cyclobutyl N-[3-[[5-amino-2-(4-piperidylmethyl)-6H-thieno[3,2-b]azepine-7-carbonyl]-propyl-amino]propyl]carbamate] |
| – | 7.69 µM | CCCN(OCC)C(=O)C1=Cc2sc(C#CC3CCN(C(=O)OC(C)(C)C)CC3)cc2N=C(N)C1 [TAZ-173] |
| 2.96 µM | – | CCCN(OCC)C(=O)C1=Cc2sc(CN3Cc4ccc(NC(=O)CCN)cc4C3)cc2N=C(N)C1 [TAZ-201] |
| 1.11 µM | – | CCCN(OCC)C(=O)C1=Cc2sc(CN3C[C@H]4CN(C(=O)OC(C)(C)C)C[C@@H]4C3)cc2N=C(N)C1 [TAZ-248] |
| – | 1.81 µM | CCCN(CCCNC(=O)OC1CCC1)C(=O)C1=Cc2sc(CCC3CNC3)cc2N=C(N)C1 [TAZ-197] |
| 3.41 µM | – | CCCN(Cc1ncco1)C(=O)C1=Cc2sc(CC3CNC3)cc2N=C(N)C1 [TAZ-256] |
| – | 3.65 µM | CCCN(CCCNC(=O)OC1CCC1)C(=O)C1=Cc2sc(CN3CCN(c4ccc(C(=O)OC)cc4)CC3)cc2N=C(N)C1 [TAZ-180] |
| 0.164 µM | – | CCCN(OCC)C(=O)C1=Cc2sc(CN3CCC(N)CC3)cc2N=C(N)C1 [TAZ-243] |

More lines, now with the values behind:

| Compound | EC50 (human TLR8) | EC50 (human TLR7) |
| --- | --- | --- |
| CCCN(CCC)C(=O)C1=Cc2sc(CNC(=O)CN)cc2N=C(N)C1 [TAZ-92] | 2.83 µM | – |
| CCCN(Cc1ccc(CN)nc1C(F)(F)F)C(=O)C1=Cc2sccc2N=C(N)C1 [TAZ-70] | 0.075 µM | 6.61 µM |
| CCCN(C(=O)C1=Cc2sccc2N=C(N)C1)N(C)CC [TAZ-100] | > 9 µM | – |
| CCCN(C[C@H]1CC[C@@H](CN)CC1)C(=O)C1=Cc2sccc2N=C(N)C1 [TAZ-118] | 4.44 µM | – |
| CCCN(Cc1ccc(CNC)cc1)C(=O)C1=Cc2sc(CCCCCN(C)C)cc2N=C(N)C1 [TAZ-65, 5-amino-2-[5-(dimethylamino)pentyl]-N-[[4-(methylaminomethyl)phenyl]methyl]-N-propyl-6H-thieno[3,2-b]azepine-7-carboxamide] | 0.311 µM | – |
| CCCN(CCC)C(=O)C1=Cc2sc(COCCCN)cc2N=C(N)C1 [TAZ-73] | – | > 9 µM |
| CCCN(CCCNC(=O)OC1CCC1)C(=O)C1=Cc2sc(CCC3CCN(C(=O)OC(C)(C)C)CC3)cc2N=C(N)C1 [TAZ-167] | – | 3.13 µM |
| CCCN(CCC)C(=O)C1=Cc2sccc2N=C(N)C1 [TAZ-2, 5-amino-N,N-dipropyl-6H-thieno[3,2-b]azepine-7-carboxamide] | 2.39 µM | – |
| CCCN(CCCNC(=O)CC(C)(C)C)C(=O)C1=Cc2sc(CN3CCNCC3)cc2N=C(N)C1 [TAZ-139] | – | 4.21 µM |
| CCCN(CC#CCNC(=O)OC(C)(C)C)C(=O)C1=Cc2sc(Br)cc2N=C(N)C1 [TAZ-10, tert-butyl N-[4-[(5-amino-2-bromo-6H-thieno[3,2-b]azepine-7-carbonyl)-propyl-amino]but-2-ynyl]carbamate] | – | 7.77 µM |
| CCCN(CCC)C(=O)C1=Cc2sc(CCCCCN)cc2N=C(N)C1 [TAZ-14, 5-amino-2-(5-aminopentyl)-N,N-dipropyl-6H-thieno [3,2-b]azepine-7-carboxamide] | 4.94 µM | – |
| CCCN(CC1CC1)C(=O)C1=Cc2sc(CCCCCNC(=O)OC(C)(C)C)cc2N=C(N)C1 [TAZ-125] | – | 2.71 µM |
| CN(C)Cc1ccc(CN(CCC(F)(F)F)C(=O)C2=Cc3sc(CCCCCNC(=O)OC(C)(C)C)cc3N=C(N)C2)cc1 [TAZ-116] | – | 1.62 µM |
| CCCN(Cc1ccc(CN(C)C)cc1C(F)(F)F)C(=O)C1=Cc2sc(CCCCCNC(=O)OC(C)(C)C)cc2N=C(N)C1 [TAZ-143] | – | 1.88 µM |
| CCCN(CCCNC(=O)C(C)(C)C)C(=O)C1=Cc2sc(CCCCCN)cc2N=C(N)C1 [TAZ-142] | – | 0.827 µM |
| CCCN(Cc1ccc(CN)cc1)C(=O)C1=Cc2sccc2N=C(N)C1 [TAZ-30, 5-amino-N-(4-(aminomethyl)benzyl)-N-propyl-6H-thieno[3,2-b]azepine-7-carboxamide] | 0.641 µM | – |
| CCCN(OCc1ccc(OC)cc1)C(=O)C1=Cc2sccc2N=C(N)C1 [TAZ-101] | 0.203 µM | – |
| CCCN(CCC)C(=O)C1=Cc2scc(C)c2N=C(N)C1 [TAZ-168] | 3.87 µM | – |
| CCCN(C[C@H]1CC[C@@H](CNC(=O)OC(C)(C)C)CC1)C(=O)C1=Cc2sccc2N=C(N)C1 [TAZ-119] | – | 2.88 µM |
| CCCN(C[C@H]1CC[C@H](CN)CC1)C(=O)C1=Cc2sccc2N=C(N)C1 [TAZ-97] | > 9 µM | – |
| CCCN(C(=O)C1=Cc2sc(CCCCCNC(=O)OC(C)(C)C)cc2N=C(N)C1)C1CC1 [TAZ-123] | – | 4.63 µM |
| CCCN(C[C@H]1CC[C@H](CNC(=O)OC(C)(C)C)CC1)C(=O)C1=Cc2sccc2N=C(N)C1 [TAZ-98] | 0.631 µM | – |
| CCCN(CCCNC(=O)OC1CCC1)C(=O)C1=Cc2sc(CN3CCNCC3)cc2N=C(N)C1 [TAZ-169] | – | 3.17 µM |
| CCCN(CCC)C(=O)C1=Cc2sc(COCCN)cc2N=C(N)C1 [TAZ-81] | 7.95 µM | – |
| CCCN(CC#CCNC(=O)OC(C)(C)C)C(=O)C1=Cc2sccc2N=C(N)C1 [TAZ-16, tert-butyl N-[4-[(5-amino-6H-thieno[3,2-b]azepine-7-carbonyl)-propyl-amino]but-2-ynyl]carbamate] | 6.11 µM | – |
| CCCN(CC#CCN)C(=O)C1=Cc2sccc2N=C(N)C1 [TAZ-17, 5-amino-N-(4-aminobut-2-ynyl)-N-propyl-6H-thieno[3,2-b]azepine-7-carboxamide] | 4.1 µM | – |
| CCCN(C[C@H]1C[C@H](CN)C1)C(=O)C1=Cc2sccc2N=C(N)C1 [TAZ-69] | 4.3 µM | – |
| CCCN(Cc1ccc(CN2CCNCC2)cc1)C(=O)C1=Cc2sccc2N=C(N)C1 [TAZ-37] | – | > 9 µM |
